Data on 16 molecules can be found in US9404080B2, “Human taste cells capable of continuous proliferation” (B.R.A.I.N. BIOTECHNOLOGY RESEARCH AND INFORMATION NETWORK AG, priority 2012, dated 2016).

The subject of experiment [1] is human taste cells BR-HTC8. Put plainly: Fluo-4 fluorescent calcium imaging assay in BR-HTC8. On Fluo-4 assay BR-HTC8: key: + indicates that the analysis was successful and that the mRNA was detected by RT-PCR or that stimulation of human taste cells with the respective taste molecule resulted in a dose-dependent increase in intracellular calcium or decrease in cellular membrane potential. It counts as cell-based. The conditions noted are these: for change of Fluo4-fluorescence / intracellular calcium on addition of the test molecule: BR-HTC8, increasing concentrations in KH-buffer with Ca2+; for Fluo-4 assay BR-HTC8: dose-dependent increase in intracellular calcium on stimulation with the cognate bitter molecule of the TAS2R named in the row. As to the method:
Before the assay, cells are maintained in HTC medium for at least 48 hours as described in Example 1. Cells are then trypsinized with accutase (e.g. PAA, L11-007) or TrypLE (e.g. Gibco, 12563) and seeded into poly-D-lysine coated 96-well assay plates (e.g. Corning) at a density of 15,000 cells/well in 100 μl HTC medium.
After 24 hours, the cells (still in 100 μl medium) are stained by addition of 100 μl of Fluo-4 staining solution, which consists of KH buffer (10 mM HEPES pH7.4 containing 118 mM NaCl, 4.7 mM KCl, 4.2 mM NaHCO3, 1.2 mM KH2PO4, 1.2 mM MgSO4, 1.3 mM CaCl2) containing 4 μM Fluo-4 (Molecular Probes) and incubation for 1 hour at 37° C. Final Fluo-4 concentration in the staining solution/medium mixture is 2 μM. Staining solution is then replaced by 80 μl KH-buffer per well and plates are transferred into a fluorescence microplate reader to monitor changes in Ca^2+-dependent fluorescence (excitation 488 nm, emission 530 nm) after the addition of 20 μl KH-buffer supplemented with the test molecule under investigation. The test molecule was added 16 seconds after starting the scan and baseline recording, mixed twice, and then recording continued for additional 44 seconds. Data points of a total of 18 reads were collected. Data analysis/Data recording—Calcium mobilization was measured as the change of peak fluorescence (ΔF) over the baseline level (F). Data were expressed as the mean S.E. of the ΔF/F value of replicated independent samples. Data analysis was done with software provided by the manufacturer of the microplate reader (e.g. Molecular Devices).
(§1) To test, whether stimulation of human taste cells with these taste molecules leads to changes in intracellular calcium the Fluo-4 fluorescent calcium imaging assay was performed as described above. Non-taste cells including HEK293 cells and non-lingual, proliferating primary cells isolated from the oral cavity served as a control and were treated equally throughout the procedure. Changes in Ca^2+-dependent Fluo-4 fluorescence were recorded on a Molecular Devices Fluorescence microplate reader. Measurement was started by addition of increasing concentrations of the taste molecules in KH-buffer to the cells. KH-buffer served as negative control and KH-buffer containing 1 μM ionomycin served as a positive control. […] Calcium signals for each test molecule are depicted as Relative Fluorescence Units (RFU), which means that calcium mobilization in response to taste molecules was calculated dF/F0, with dF is (peak fluorescence F1−baseline fluorescence F0). […] Data were obtained from several independent experiments and performed in triplicates.
In order to perform to the Fluo-4 fluorescent calcium imaging experiment in the absence of extracellular Ca^2+ the procedure was conducted as described above, however, the KH-buffer was prepared without addition of Ca^2+. Measurement was started by addition of increasing concentrations of the taste molecules in KH-buffer without Ca^2+ to the cells. KH-buffer without Ca^2+ served as negative control and KH-buffer without Ca^2+ containing 1 μM ionomycin served as a positive control.
To test, whether stimulation of human taste cells with oxytocin leads to changes in intracellular calcium the Fluo-4 fluorescent calcium imaging assay was performed as described above in Example 5. Briefly, the human taste cells were seeded in 96-well plates and stained with 2 μM of the calcium-sensitive fluorescence dye Fluo4 in HTC/KH buffer medium for one hour at 37° C. with subsequent replacement of the staining solution with KH-buffer. Non-taste cells including HEK293 cells and non-lingual, proliferating primary cells isolated from the oral cavity served as a control and were treated equally throughout the procedure. Changes in Ca^2+-dependent Fluo-4 fluorescence were recorded on a Molecular Devices Fluorescence microplate reader.
For orientation: Calcium flux is commonly read through the fluorescence of an indicator in the cells.

In experiment [2] the test system is Non-taste cells including HEK293 cells, Cal33 cells, and non-lingual, proliferating primary cells isolated from the oral cavity. Put plainly: Fluo-4 fluorescent calcium imaging assay in non-taste control cells. In kind it is cell-based, human. As for the experimental part:
Briefly, human taste cells were seeded in 96-well plates and stained with Fluo4-AM. Non-taste cells including HEK293 cells, Cal33 cells, and non-lingual, proliferating primary cells isolated from the oral cavity served as a control. Changes in Ca^2+-dependent Fluo-4 fluorescence were recorded on a Molecular Devices fluorescence microplate reader. Measurement was started by addition of increasing concentrations of the taste molecules. […] Calcium signals for each test molecule are depicted as relative fluorescence units (RFU).
as §1

For experiment [3], the system named is human taste cells BR-HTC8. The experiment is described as follows: FLIPR fluorescent membrane potential (FMP) imaging assay in BR-HTC8. On FMP assay BR-HTC8: key: + indicates that the analysis was successful and that the mRNA was detected by RT-PCR or that stimulation of human taste cells with the respective taste molecule resulted in a dose-dependent increase in intracellular calcium or decrease in cellular membrane potential. It counts as cell-based. The settings on record: for change of cellular membrane potential (FLIPR FMP dye fluorescence) on addition of the test molecule: BR-HTC8, increasing concentrations in KH-buffer; for FMP assay BR-HTC8: dose-dependent decrease in cellular membrane potential on stimulation with the cognate bitter molecule of the TAS2R. As for the experimental part: This cell depolarization was measured by using voltage-sensitive dyes including FLIPR fluorescent membrane potential (FMP) dye (Molecular Devices R8123). Before the assay, cells were maintained in HTC medium for at least 48 hours as described above in Example 1. Cells were then trypsinized with accutase (e.g. PAA, L11-007) or TrypLE (e.g. Gibco, 12563) and seeded into poly-D-lysine coated 96-well assay plates (Corning) at a density of 15,000 cells/well in […].
After 24 hours, medium was removed and the cells are washed once with 100 μl KH buffer (10 mM HEPES pH7.4 containing 118 mM NaCl, 4.7 mM KCl, 4.2 mM NaHCO3, 1.2 mM KH2PO4, 1.2 mM MgSO4, 1.3 mM CaCl2) and then stained with 200 μl KH buffer containing FLIPR FMP dye according instructions of the manufacturer […] and incubation for 2 hours at 37° C. The plates were then transferred into a fluorescence microplate reader to monitor changes in membrane potential-dependent fluorescence (excitation 530 nm, emission 565 nm) after the addition of 50 μl KH-buffer supplemented with the test molecule under investigation. The test molecule was added 16 seconds after starting the scan and baseline recording, mixed twice, and then recording continued for additional 74 seconds. Data points of a total of 35 reads were collected.
Data analysis/Data recording—Changes of the membrane potential was measured as the change of peak fluorescence (ΔF) over the baseline level (F). Data were expressed as the mean S.E. of the ΔF/F value of replicated independent samples. Data analysis was done with software provided by the manufacturer of the microplate reader (Molecular Devices).
(§2) To test, whether stimulation of human taste cells with taste molecules leads to changes in cellular membrane potential the FLIPR fluorescent membrane potential assay was performed as described above. Non-taste cells including HEK293 cells and non-lingual, proliferating primary cells isolated from the oral cavity served as a control and were treated equally throughout the procedure. Changes in membrane potential were recorded on a Molecular Devices Fluorescence microplate reader. Measurement was started by addition of increasing concentrations of the taste molecules in KH-buffer to the cells. KH-buffer served as negative control and KH-buffer containing 4 μM FCCP (e.g. Sigma, C2920) served as a positive control. […] Data were obtained from several independent experiments and performed in triplicates.
as §2, with “This cell depolarization can be measured by using voltage-sensitive dyes including FLIPR fluorescent membrane potential (FMP) dye (Molecular Devices R8123) as described above in Example 6. To” for “To”, “oxytocin” for “taste molecules”, “oxytocin” for “the taste molecules”

A further experiment has as its system BR-HTC38 cells. The experiment is described as follows: Fluo-4 fluorescent calcium imaging assay in TAS2R38-transduced BR-HTC38. In kind it is cell-based, human. The settings on record: BR-HTC38 (TAS2R38 expressed) vs BR-HTC8. As to the method:
Changes in Ca^2+-dependent Fluo-4 fluorescence were recorded on a Molecular Devices fluorescence microplate reader. Measurement was started by addition of increasing concentrations of the taste molecules in KH-buffer to the cells. KH-buffer served as negative control and KH-buffer containing 1 μM ionomycin served as a positive control. […] Calcium signals for each test molecule are depicted as Relative Fluorescence Units (RFU), which means that calcium mobilization in response to taste molecules was calculated dF/F0, with dF is (peak fluorescence F1−baseline fluorescence F0). […] Data were obtained from several independent experiments and performed in triplicates.

“Also recorded” adds a separate entry of the source.

For `CCCCCCCC/C=C\CCCCCCCC(=O)O` [oleic acid], in experiment [1], the “change of Fluo4-fluorescence / intracellular calcium on addition of the test molecule” value is “dose-dependent increase of Fluo4-fluorescence”. Besides, the “increase of Fluo4-fluorescence in control cells” value (from here on “increase of Fluo4-fluorescence”) in experiment [2] is recorded as “not in control cells”.
In the case of `COc1cccc2c1cc([N+](=O)[O-])c1c(C(=O)O)cc3c(c12)OCO3` [Aristolochic acid], in experiment [1], the “change of Fluo4-fluorescence / intracellular calcium on addition of the test molecule” value is “dose-dependent increase of Fluo4-fluorescence” and the “Fluo-4 assay BR-HTC8” value was “+”. Further, in experiment [3], the “change of cellular membrane potential (FLIPR FMP dye fluorescence) on addition of the test molecule” value (“change of cellular membrane potential” for short) is listed as “dose-dependent decrease in cellular membrane potential; also recorded: dose-dependent decrease of membrane potential” and the “FMP assay BR-HTC8” value was “+”. For the same molecule, the “increase of Fluo4-fluorescence” value in experiment [2] is on record as “not in control cells”.
In the case of `O=C(N[C@H](CO)[C@H](O)c1ccc([N+](=O)[O-])cc1)C(Cl)Cl` [Chloramphenicole], the “Fluo-4 assay BR-HTC8” value in experiment [1] is on record as “+”.
For `CC[C@H](C)[C@@H]1NC(=O)[C@H](Cc2ccc(O)cc2)NC(=O)[C@@H](N)CSSC[C@@H](C(=O)N2CCC[C@H]2C(=O)N[C@@H](CC(C)C)C(=O)NCC(N)=O)NC(=O)[C@H](CC(N)=O)NC(=O)[C@H](CCC(N)=O)NC1=O` [oxytocin], in experiment [1], the “change of Fluo4-fluorescence / intracellular calcium on addition of the test molecule” value is “dose-dependent increase of Fluo4-fluorescence”. Further, the “change of cellular membrane potential” value in experiment [3] was “dose-dependent decrease of membrane potential”.
For the molecule `O=S(=O)(NCCNC/C=C/c1ccc(Br)cc1)c1cccc2cnccc12` [H89], in experiment [1] (0.5 μM H89, BR-HTC8), the “calcium response to saccharin in the presence of H89” value was “not reduced” and the “calcium signalling on stimulation with salicin in the presence of H89” value is given as “slightly inhibited”.
In the case of `COc1cc(OC2CCN(C(C)=O)CC2)ccc1C(=O)N1CCC(N2C(=O)OCc3ccccc32)CC1` [L371,257], the “calcium signalling on stimulation with oxytocin in the presence of L371,257” value in experiment [1] (40 nM L371,257, BR-HTC8) is given as “inhibited”.
With `O=C(O[C@@H]1Cc2c(O)cc(O)cc2O[C@@H]1c1cc(O)c(O)c(O)c1)c1cc(O)c(O)c(O)c1` [EGCG], in experiment [1], the “Fluo-4 assay BR-HTC8” value is listed as “+”.
Turning to `CC1COc2c(N3CCN(C)CC3)c(F)cc3c(=O)c(C(=O)O)cn1c23` (centres unmarked) [Ofloxacine], in experiment [1], the “Fluo-4 assay BR-HTC8” value is listed as “+”.
Consider `CCCCC/C=C\C/C=C\CCCCCCCC(=O)O` [linoleic acid], for which the “change of Fluo4-fluorescence / intracellular calcium on addition of the test molecule” value in experiment [1] is on record as “dose-dependent increase of Fluo4-fluorescence”. Besides, the “increase of Fluo4-fluorescence” value in experiment [2] is on record as “not in control cells”.
With `CC1=CC(=O)[N-]S(=O)(=O)O1.[K+]` [Acesulfame K], in experiment [1], the “change of Fluo4-fluorescence / intracellular calcium on addition of the test molecule” value is on record as “do not trigger an increase in intracellular calcium” and the “Fluo-4 assay BR-HTC8” value is reported as “+”. Further, in experiment [3], the “change of cellular membrane potential” value is given as “decrease in cellular membrane potential” and the “FMP assay BR-HTC8” value is reported as “+”.
For `NC(=S)Nc1ccccc1` [PTC, phenylthiocarbamide], in experiment [1], the “change of Fluo4-fluorescence / intracellular calcium on addition of the test molecule” value is “dose-dependent increase of Fluo4-fluorescence” and the “Fluo-4 assay BR-HTC8” value is given as “+”. Also, the “FMP assay BR-HTC8” value in experiment [3] was “+”. Further, in the experiment on BR-HTC38 cells, the “dose-dependent Fluo-4 calcium response in BR-HTC38 compared with parental BR-HTC8” value is reported as “enhanced”.
Consider `COc1ccc2c(c1)CC[C@@H]1[C@@H]2CC[C@]2(C)[C@@H](NCCCCCCN3C(=O)C=CC3=O)CC[C@@H]12` [U73122], for which, in experiment [1] (5 μM U73122, BR-HTC8), the “calcium response to saccharin in the presence of U73122” value is listed as “not reduced” and the “calcium signalling on stimulation with salicin in the presence of U73122” value is reported as “inhibited”.
As to `CCN(CC)CCCC(C)Nc1ccnc2cc(Cl)ccc12` (centres unmarked) [Chloroquine], the “FMP assay BR-HTC8” value in experiment [3] is recorded as “+”.
`Nc1ncnc2c1ncn2[C@@H]1O[C@H](COP(=O)(O)OP(=O)(O)OP(=O)(O)O)[C@@H](O)[C@H]1O` [ATP, adenosine triphosphate]: the “change of Fluo4-fluorescence / intracellular calcium on addition of the test molecule” value in experiment [1] was “increase in intracellular calcium”. For the same molecule, the “change of cellular membrane potential” value in experiment [3] is recorded as “dose-dependent decrease in cellular membrane potential; also recorded: dose-dependent decrease of membrane potential”.
On to `Cc1ccccc1C(OCCN(C)C)c1ccccc1` (centres unmarked) [Orphenadrine], for which, in experiment [1], the “Fluo-4 assay BR-HTC8” value is listed as “+”.
For `CC[N+](CC)(CC(=O)Nc1c(C)cccc1C)Cc1ccccc1.O=C([O-])c1ccccc1` [Denatonium benzoat], the “Fluo-4 assay BR-HTC8” value in experiment [1] is “+”.
